This is an account of results in patent publication US8946296B2, “Substituted heteroaryl- and aryl-cyclopropylamine acetamides and their use” (Oryzon Genomics S.A., priority 2009, dated 2015).

Structures can show the parent of a compound that is named as a salt.

In one assay the target is T1, MAO-A (Homo sapiens, UniProt P21397).
T1 construct: purchased Sigma Aldrich
T1 sequence (P21397 1-527): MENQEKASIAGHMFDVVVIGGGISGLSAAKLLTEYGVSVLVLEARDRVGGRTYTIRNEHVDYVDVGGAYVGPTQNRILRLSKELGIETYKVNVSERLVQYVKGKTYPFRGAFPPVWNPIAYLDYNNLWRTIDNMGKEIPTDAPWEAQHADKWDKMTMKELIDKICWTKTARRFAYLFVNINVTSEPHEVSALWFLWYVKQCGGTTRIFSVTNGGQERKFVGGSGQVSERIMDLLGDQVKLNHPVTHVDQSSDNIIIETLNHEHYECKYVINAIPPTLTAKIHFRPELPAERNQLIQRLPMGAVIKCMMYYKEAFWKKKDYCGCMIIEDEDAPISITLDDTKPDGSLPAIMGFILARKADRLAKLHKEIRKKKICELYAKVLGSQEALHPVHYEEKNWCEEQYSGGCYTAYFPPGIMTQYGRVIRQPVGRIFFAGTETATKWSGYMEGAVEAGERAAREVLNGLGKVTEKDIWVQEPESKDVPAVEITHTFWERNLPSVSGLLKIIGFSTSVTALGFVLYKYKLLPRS
Briefly: Monoamine oxidase assay, MAO-A (kynuramine to 4-hydroxyquinoline fluorescence). The note with it: Ki (IC50) range class; human recombinant MAO-A, kynuramine substrate. The format is biochemical.

For another assay, the target named is T2, MAO-B (Homo sapiens, UniProt P27338).
T2 construct: purchased Sigma Aldrich
T2 sequence (P27338 1-520): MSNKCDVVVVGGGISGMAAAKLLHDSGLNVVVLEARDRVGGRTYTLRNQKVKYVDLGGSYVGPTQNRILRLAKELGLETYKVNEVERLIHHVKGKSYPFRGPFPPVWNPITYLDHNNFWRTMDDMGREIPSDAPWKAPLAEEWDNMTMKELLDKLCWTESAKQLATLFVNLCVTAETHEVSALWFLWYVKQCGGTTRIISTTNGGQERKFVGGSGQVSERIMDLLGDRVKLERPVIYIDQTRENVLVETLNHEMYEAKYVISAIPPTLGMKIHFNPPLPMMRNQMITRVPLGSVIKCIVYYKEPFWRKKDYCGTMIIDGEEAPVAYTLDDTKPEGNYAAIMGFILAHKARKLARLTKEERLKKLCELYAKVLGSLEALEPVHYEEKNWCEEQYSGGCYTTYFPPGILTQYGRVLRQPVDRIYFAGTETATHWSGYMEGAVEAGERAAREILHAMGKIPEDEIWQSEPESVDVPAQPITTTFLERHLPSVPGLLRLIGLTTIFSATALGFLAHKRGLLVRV
Briefly: Monoamine oxidase assay, MAO-B (kynuramine to 4-hydroxyquinoline fluorescence). The format is biochemical. The note with it: Ki (IC50) range class; human recombinant MAO-B, kynuramine substrate.

The target of the next assay is LSD1 (Homo sapiens, UniProt O60341). The assay is described as follows: LSD1 inhibition assay (Amplex Red peroxide/peroxidase-coupled, di-methylated H3-K4 peptide substrate).

Source text for MAO-A: (§1) Human recombinant monoamine oxidase proteins MAO-A and MAO-B were purchased from Sigma Aldrich. […] In order to monitor MAO enzymatic activities and/or their inhibition rate by inhibitor(s) of interest, a fluorescent-based (inhibitor)-screening assay was set up. 3-(2-Aminophenyl)-3-oxopropanamine (kynuramine dihydrobromide, Sigma Aldrich), a non fluorescent compound was chosen as a substrate. Kynuramine is a non-specific substrate for both MAOs activities. While undergoing oxidative deamination by MAO activities, kynuramine is converted into 4-hydroxyquinoline (4-HQ), a resulting fluorescent product.
(§2) The monoamine oxidase activity was estimated by measuring the conversion of kynuramine into 4-hydroxyquinoline. Assays were conducted in 96-well black plates with clear bottom (Corning) in a final volume of 100 μL. The assay buffer was 100 mM HEPES, pH 7.5. Each experiment was performed in triplicate within the same experiment.
(§3) The oxidative deamination of the substrate was stopped by adding 50 μL (v/v) of NaOH 2N.
(§4) The Ki of each inhibitor was measure at Vmax/2.
Source text for MAO-B: as §1, §2, §3, §4

In the case of `NC(=O)CN[C@@H]1C[C@H]1c1ccc(OCc2ccc(F)cc2)cc1` (relative stereo) [Example 4, 2-((trans)-2-(4-(4-fluorobenzyloxy)phenyl)cyclopropylamino)acetamide hydrochloride], the Ki was above 40 µM on MAO-A, 0.1 to 0.5 µM on MAO-B and 0.1 to 0.5 µM at LSD1.
Turning to `NC(=O)CN[C@@H]1C[C@H]1c1ccc(-c2cccc(C(F)(F)F)c2)cc1` (relative stereo) [Example 11, 2-((trans)-2-(3′-(trifluoromethyl)biphenyl-4-yl)cyclopropylamino)acetamide], the Ki was in the range of 5 to 40 µM on MAO-A, 0.1 to 0.5 µM at MAO-B and 0.1 to 0.5 µM at LSD1.
In the case of `NC(=O)CN[C@@H]1C[C@H]1c1ccc(OCc2cc(F)cc(F)c2)cc1` (relative stereo) [Example 9, 2((trans)-2-(4-(3,5-difluorobenzyloxy)phenyl)cyclopropylamino)acetamide], the inhibition constant Ki is 5 to 40 µM at MAO-A, 0.1 to 0.5 µM on MAO-B and 0.01 to 0.1 µM at LSD1.
Turning to `N#Cc1cccc(COc2ccc([C@@H]3C[C@H]3NCC(N)=O)cc2)c1` (relative stereo) [Example 2, 2-((trans)-2-(4-(3-cyanobenzyloxy)phenyl)cyclopropylamino)acetamide hydrochloride], the figures for the inhibitory constant (Ki) on MAO-A, on MAO-B and at LSD1 were 0.5 to 5 µM, 0.1 to 0.5 µM and 0.01 to 0.1 µM, respectively.
As to `NC(=O)CN[C@@H]1C[C@H]1c1ccc(OCc2cccc(F)c2)cc1` (relative stereo) [Example 5, 2-((trans)-2-(4-(3-fluorobenzyloxy)phenyl)cyclopropylamino)acetamide hydrochloride], the inhibition constant Ki lay in the range of 5 to 40 µM on MAO-A, 0.1 to 0.5 µM at MAO-B and 0.01 to 0.1 µM at LSD1.
`N#Cc1ccc(COc2ccc([C@@H]3C[C@H]3NCC(N)=O)cc2)cc1` (relative stereo) [Example 1, 2-((trans)-2-(4-(4-cyanobenzyloxy)phenyl)cyclopropylamino)acetamide hydrochloride]: the Ki on MAO-A fell in the range of 5 to 40 µM; on MAO-B it was 0.1 to 0.5 µM; at LSD1, 0.01 to 0.1 µM.
As for `NC(=O)CN[C@@H]1C[C@H]1c1ccc(-c2ccc(Cl)cc2)nc1` (relative stereo) [Example 20, 2-((trans)-2-(6-(4-chlorophenyl)pyridin-3-yl)cyclopropylamino)acetamide], the Ki at MAO-A lay within 0.5 to 5 µM; at MAO-B it was 0.5 to 5 µM; on LSD1, 0.01 to 0.1 µM.
As to `NC(=O)CN[C@@H]1C[C@H]1c1ccc(OCc2cccc(Cl)c2)cc1` (relative stereo) [Example 6, 2-((trans)-2-(4-(3-chlorobenzyloxy)phenyl)cyclopropylamino)acetamide hydrochloride], the Ki on MAO-A was above 40 µM; on MAO-B, 0.1 to 0.5 µM; on LSD1, 0.01 to 0.1 µM.
For `NC(=O)CN[C@@H]1C[C@H]1c1ccc(OCCc2ccccc2)cc1` (relative stereo) [Example 10, 2-((trans)-2-(4-phenethoxyphenyl)cyclopropylamino)acetamide], the Ki was 5 to 40 µM at MAO-A, 0.1 to 0.5 µM on MAO-B and 0.01 to 0.1 µM on LSD1.
The matching figures for `NC(=O)CN[C@@H]1C[C@H]1c1ccc(OCc2cccc(Br)c2)cc1` (relative stereo) [Example 8, 2-((trans)-2-(4-(3-bromobenzyloxy)phenyl)cyclopropylamino)acetamide]: 5 to 40 µM, 0.1 to 0.5 µM and 0.01 to 0.1 µM.
Consider `NC(=O)CN[C@@H]1C[C@H]1c1ccc(OCc2ccc(Cl)cc2)cc1` (relative stereo) [Example 7, 2-((trans)-2-(4-(4-chlorobenzyloxy)phenyl)cyclopropylamino)acetamide hydrochloride], for which the Ki on MAO-A was above 40 µM; at MAO-B, 0.1 to 0.5 µM; on LSD1, 0.1 to 0.5 µM.
Regarding `NC(=O)CN[C@@H]1C[C@H]1c1ccc(OCc2ccccc2)cc1` (relative stereo) [Example 3, 2-((trans)-2-(4-(benzyloxy)phenyl)cyclopropylamino)acetamide], the Ki at MAO-A was in the range of 5 to 40 µM; at MAO-B, 0.1 to 0.5 µM; on LSD1, 0.1 to 0.5 µM.
Consider `NC(=O)CN[C@H]1C[C@@H]1c1ccc(-c2ccc(-c3ccccc3)cc2)cc1` (stereo in doubt) [Example 12, 2-(2-[1,1′;4′,1″]Terphenyl-4″-yl-cyclopropylamino)acetamide], for which the Ki on MAO-A was above 40 µM; on MAO-B, 0.1 to 0.5 µM; at LSD1, 0.1 to 0.5 µM.

The term Ki denotes a measure of affinity in units of concentration, obtained from inhibition or displacement.
